From patent EP0606463B1, “NEUROMEDIN B RECEPTOR ANTAGONISTS” (The Administrators of The Tulane Educational Fund, priority 1992, dated 1994)
Where a SMILES comes first, the peptide text is derived from it. Bridges are numbered along the chain shown (N, C = ends). [ ]: non-standard residue; d: D form. 2Nal = N[C@@H](Cc1ccc2ccccc2c1)C(=O)O; d2Nal = N[C@H](Cc1ccc2ccccc2c1)C(=O)O; Lys(iPr) = CC(C)NCCCC[C@H](N)C(=O)O

Columns and labels:
rat NMB receptor = target: T1, rat NMB receptor (Rattus norvegicus, UniProt P24053); assay: Binding of 125I-[D-Tyr0]NMB to NMB-R transfected BALB 3T3 cells; conditions: for fold by which cyclo SS-octa was more potent than the analog: inhibition of ^125I-[Tyr^0]NMB binding to NMB-R transfected cells; for decrease in NMB receptor affinity compared with #1: structure-function comparison of Table 1 values
T1 construct: a full length NMB-preferring bombesin receptor clone generated from rat esophagus; expressed in transfected cells; host or cells: BALB 3T3 cells
T1 sequence (P24053 1-390): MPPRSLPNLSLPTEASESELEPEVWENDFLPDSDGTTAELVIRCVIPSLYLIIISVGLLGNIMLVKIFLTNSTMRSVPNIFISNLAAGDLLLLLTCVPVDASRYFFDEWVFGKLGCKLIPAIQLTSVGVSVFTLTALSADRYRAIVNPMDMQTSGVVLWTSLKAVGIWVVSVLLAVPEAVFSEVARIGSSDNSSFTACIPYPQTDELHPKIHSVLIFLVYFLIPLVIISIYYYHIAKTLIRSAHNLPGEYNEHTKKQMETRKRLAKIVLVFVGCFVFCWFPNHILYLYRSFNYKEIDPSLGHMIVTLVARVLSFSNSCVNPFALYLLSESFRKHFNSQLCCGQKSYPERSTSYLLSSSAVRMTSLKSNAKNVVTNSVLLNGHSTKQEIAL
Protocol: (§1) Cells were passaged every 3-4 days at confluence, using 0.1% trypsin in 1 mM EDTA. Rat glioblastoma C-6 tumor cells were maintained similarly and were passaged weekly at confluence. Both cell lines were cultured at 37°C in a 5% CO2 atmosphere. Rat AR 42J pancreatic acinar cells were cultured in Dulbecco's modified Eagle's medium (DMEM) without antibiotics and supplemented with 10% (vol/vol) fetal calf serum. The incubation atmosphere consisted of 10% CO2-90% humidified air at 37°C.

NMB Receptor = target: T2, NMB Receptor (Rattus norvegicus, UniProt P24053); assay: [3H]inositol phosphates (IP) in NMB-R transfected cells; type: cell-based; conditions: for NMB-R Transfected Cells [^3H]IP Alone (10 µ M): analog 10 µM alone, no-additive control 13 ± 3; for NMB-R Transfected Cells [^3H]IP Plus NMB (3 nM): analog 10 µM plus NMB 3 nM, NMB without analog 186 ± 58; for effect on NMB-stimulated increase in [^3H]IP: NMB-R transfected cells, 3 nM NMB, peptide 10 µM
T2 construct: a full length NMB-preferring bombesin receptor clone generated from rat esophagus; expressed in transfected cells; host or cells: BALB 3T3 cells
T2 sequence (P24053 1-390): T1 sequence (P24053 1-390)
Protocol: as §1, with “As described previously [Wada, E., et al. Neuron 6:421 (1991)], BALB 3T3 cells expressing a stably transfected rat NMB receptor (NMB-R transfected cells) were obtained using calcium phosphate precipitation of a full length NMB-preferring bombesin receptor clone generated from rat esophagus and subcloned into a modified version of the pCD2 plasmid. Cells” for “Cells”
Total phosphoinositides in C-6 cells and in NMB-R transfected cells were determined as described previously, with minor modifications [Benya, R. V. et al. Mol. Pharmacol. 42:1058 (1992); and Wang, L-H. et al. Biochem. J. 286:641 (1992)]. Cells were grown to confluence in 24-well plates and then loaded with 100 µCi/ml myo-[2-^3H]inositol in Dulbecco's modified essential medium with 2% fetal bovine serum at 37°C for 48 hrs. Cells were washed and incubated in phosphoinositide buffer (standard buffer additionally containing 10 mM LiCl, 20 mM HEPES, 2 mM CaCl2, 2% BSA, and 1.2 mM MgSO4) for 15 min and then for 60 min at 37°C with agonists at various concentrations or with 3 nM NMB (a half-maximal effective concentration) and possible antagonists at different concentrations. Reactions were halted using ice-cold 1% HCl in methanol, and the inositol phosphates (IP) were isolated as described previously [Bologna, M. et al. Cancer 63:1714 (1989); and Endo, T. et al. J. Endocrinol. 131:313 (1991)]. Briefly, after loading of the anion exchange column, free [^3H]glycerophosphorylinositol was removed by washing with 5 mM disodium tetraborate in 60 mM sodium formate. Total [^3H]inositol phosphates were then eluted using 100 mM formic acid in 1.0 M ammonium formate as described previously [Benya, R. V. et al. Mol. Pharmacol. 42:1058 (1992); and Wang, L-H. et al. Biochem. J. 286:641 (1992)].

GRP Receptor = target: T3, GRP Receptor (Rattus norvegicus, UniProt P52500); assay: Amylase release from rat pancreatic acini; type: cell-based; conditions: for Rat Pancreatic Acini Amylase Release Alone (10µM): analog 10 µM alone, no-additive control 4 ± 1; for Rat Pancreatic Acini Amylase Release Plus Bn(0.3 nM): analog 10 µM plus Bn 0.3 nM, Bn without analog 15 ± 1
T3 construct: from tissue; host or cells: dispersed pancreatic acini
T3 sequence (P52500 whole entry): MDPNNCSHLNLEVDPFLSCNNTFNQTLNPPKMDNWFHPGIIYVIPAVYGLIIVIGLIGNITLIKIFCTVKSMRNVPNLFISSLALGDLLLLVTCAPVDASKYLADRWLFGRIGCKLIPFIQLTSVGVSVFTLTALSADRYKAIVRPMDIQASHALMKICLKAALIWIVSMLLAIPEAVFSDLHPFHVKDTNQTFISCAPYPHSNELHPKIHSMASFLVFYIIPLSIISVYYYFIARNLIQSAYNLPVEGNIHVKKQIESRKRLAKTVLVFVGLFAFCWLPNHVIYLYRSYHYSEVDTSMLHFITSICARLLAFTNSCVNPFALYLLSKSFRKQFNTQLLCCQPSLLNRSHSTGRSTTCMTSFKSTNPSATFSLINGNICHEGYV

SMILES | fold by which cyclo SS-octa was more potent than the analog (rat NMB receptor) [fold] | NMB-R Transfected Cells [^3H]IP Alone (10 µ M) (NMB Receptor) [dpm x 10^3] | NMB-R Transfected Cells [^3H]IP Plus NMB (3 nM) (NMB Receptor) [dpm x 10^3] | Rat Pancreatic Acini Amylase Release Alone (10µM) (GRP Receptor) [% total] | Rat Pancreatic Acini Amylase Release Plus Bn(0.3 nM) (GRP Receptor) [% total] | effect on NMB-stimulated increase in [^3H]IP (NMB Receptor) | decrease in NMB receptor affinity compared with #1 (rat NMB receptor) [fold] | fold greater affinity for the NMB than the GRP receptors (rat NMB receptor; NMB-R transfected cells versus GRP receptors on rat pancreatic acini) [fold]
CC(C)[C@@H]1NC(=O)[C@H](CCCCN)NC(=O)[C@@H](Cc2c[nH]c3ccccc23)NC(=O)[C@H](Cc2ccc(O)cc2)NC(=O)[C@@H](NC(=O)[C@H](N)Cc2ccccc2)CSSC[C@@H](C(=O)N[C@@H](Cc2ccc3ccccc3c2)C(N)=O)NC1=O [Analog #4, [D-Phe^1]-cyclo SS-octa] (H-[dF]CY[dW]KVC[2Nal]-NH2; disulfide 2-7; N-terminus assumed) | 4 | 13 ± 1 | 33 ± 4 | 4 ± 2 | 14 ± 1 | – | – | –
C[C@@H](O)[C@H](NC(=O)[C@@H]1CSSC[C@H](NC(=O)[C@H](N)Cc2ccc3ccccc3c2)C(=O)N[C@@H](Cc2ccc(O)cc2)C(=O)N[C@H](Cc2c[nH]c3ccccc23)C(=O)N[C@@H](CCCCN)C(=O)N[C@@H]([C@@H](C)O)C(=O)N1)C(N)=O [Analog #6, [Thr^6,8]-cyclo-SS-octa] | 69 | 11 ± 2 | 188 ± 30 | 3 ± 1 | 14 ± 2 | had no effect | – | –
C[C@@H](O)[C@@H]1NC(=O)[C@H](CCCCN)NC(=O)[C@@H](Cc2c[nH]c3ccccc23)NC(=O)[C@H](Cc2ccc(O)cc2)NC(=O)[C@@H](NC(=O)[C@H](N)Cc2ccccc2)CSSC[C@@H](C(=O)N[C@@H](Cc2ccc3ccccc3c2)C(N)=O)NC1=O [Analog #7, [D-Phe^1, Thr^6]-cyclo-SS-octa] (H-[dF]CY[dW]KTC[2Nal]-NH2; disulfide 2-7; N-terminus assumed) | 18 | 15 ± 1 | 99 ± 24 | 3 ± 1 | 16 ± 1 | – | – | –
CC(C)[C@@H]1NC(=O)[C@H](CCCCN)NC(=O)[C@@H](Cc2c[nH]c3ccccc23)NC(=O)[C@H](Cc2ccc(O)cc2)NC(=O)[C@@H](NC(=O)[C@H](N)Cc2ccc3ccccc3c2)CSSC[C@@H](C(=O)N[C@H](Cc2ccc3ccccc3c2)C(N)=O)NC1=O [Analog #8, [D-Nal^8]-cyclo SS-octa] (H-[d2Nal]CY[dW]KVC[d2Nal]-NH2; disulfide 2-7; N-terminus assumed) | 9 | 10 ± 3 | 67 ± 13 | 2 ± 1 | 14 ± 1 | – | 6 | –
CC(C)[C@@H]1NC(=O)[C@H](CCCCN)NC(=O)[C@@H](Cc2c[nH]c3ccccc23)NC(=O)[C@H](Cc2ccc(O)cc2)NC(=O)[C@@H](NC(=O)[C@@H](N)Cc2ccc3ccccc3c2)CSSC[C@@H](C(=O)N[C@H](Cc2ccc3ccccc3c2)C(N)=O)NC1=O [Analog #9, [Nal^1,D-Nal^8]-cyclo SS-octa] (H-[2Nal]CY[dW]KVC[d2Nal]-NH2; disulfide 2-7; N-terminus assumed) | 6 | 8 ± 2 | 28 ± 6 | 3 ± 1 | 16 ± 1 | – | – | –
CC(C)[C@@H]1NC(=O)[C@H](CCCCN)NC(=O)[C@@H](Cc2c[nH]c3ccccc23)NC(=O)[C@H](Cc2ccc(O)cc2)NC(=O)[C@H](NC(=O)[C@H](N)Cc2ccc3ccccc3c2)CSSC[C@@H](C(=O)N[C@@H](Cc2ccc3ccccc3c2)C(N)=O)NC1=O [Analog #10, [D-Cys^2]-cyclo SS-octa] (H-[d2Nal][dC]Y[dW]KVC[2Nal]-NH2; disulfide 2-7; N-terminus assumed) | 6 | 10 ± 3 | 4 ± 2 | 3 ± 1 | 16 ± 1 | completely inhibited | 5 | –
CC(C)[C@@H]1NC(=O)[C@H](CCCCN)NC(=O)[C@@H](Cc2c[nH]c3ccccc23)NC(=O)[C@H](Cc2ccc(O)cc2)NC(=O)[C@@H](NC(=O)[C@H](N)Cc2c[nH]c3ccccc23)CSSC[C@@H](C(=O)N[C@@H](Cc2ccc3ccccc3c2)C(N)=O)NC1=O [Analog #12, [D-Trp^1]-cyclo SS-octa] (H-[dW]CY[dW]KVC[2Nal]-NH2; disulfide 2-7; N-terminus assumed) | 9 | 9 ± 2 | 43 ± 2 | 3 ± 1 | 13 ± 1 | – | – | –
NCCCC[C@@H]1NC(=O)[C@@H](Cc2c[nH]c3ccccc23)NC(=O)[C@H](Cc2ccc(O)cc2)NC(=O)[C@@H](NC(=O)[C@H](N)Cc2ccc3ccccc3c2)CSSC[C@@H](C(=O)N[C@@H](Cc2ccc3ccccc3c2)C(N)=O)NC(=O)[C@H](Cc2ccccc2)NC1=O [Analog #13, [Phe^6]-cyclo SS-octa] (H-[d2Nal]CY[dW]KFC[2Nal]-NH2; disulfide 2-7; N-terminus assumed) | 2 | 10 ± 1 | 9 ± 4 | 3 ± 1 | 14 ± 1 | completely inhibited | – | > 100
CC(C)NCCCC[C@@H]1NC(=O)[C@@H](Cc2c[nH]c3ccccc23)NC(=O)[C@H](Cc2ccc(O)cc2)NC(=O)[C@@H](NC(=O)[C@H](N)Cc2ccccc2)CSSC[C@@H](C(=O)N[C@@H](Cc2ccc3ccccc3c2)C(N)=O)NC(=O)[C@H]([C@@H](C)O)NC1=O [Analog #15, [D-Phe^1, Lys(iPr)^5, Thr^6]-cyclo SS-octa] (H-[dF]CY[dW][Lys(iPr)]TC[2Nal]-NH2; disulfide 2-7; N-terminus assumed) | 9 | 11 ± 1 | 67 ± 7 | 4 ± 2 | 13 ± 2 | – | – | –
C[C@@H](O)[C@H](NC(=O)[C@@H]1CSSC[C@H](NC(=O)[C@H](N)Cc2ccc3ccccc3c2)C(=O)N[C@@H](Cc2ccccc2)C(=O)N[C@H](Cc2c[nH]c3ccccc23)C(=O)N[C@@H](CCCCN)C(=O)N[C@@H]([C@@H](C)O)C(=O)N1)C(N)=O [Analog #18, [Phe^3, Thr^6,8]-cycle SS-octa] (H-[d2Nal]CF[dW]KTCT-NH2; disulfide 2-7) | – | 11 ± 1 | 143 ± 11 | – | – | had no effect | – | –
